Data published in patent US20090304688A1, “Methods and Compositions for Increasing the Efficiency of Therapeutic Antibodies Using Gamma Delta T Cell Activators” (INNATE PHARMA S.A., priority 2006, published 2009).

Tested on: γδ T lymphocytes
Assay: In vivo amplification of γδ T lymphocytes in primates

3-(bromomethyl)-3-butanol-1-yl-diphosphate [BrHPP]
amplification of γδ T lymphocytes in vivo (BrHPP 90 mg/kg i.v. with IL-2 in rituximab-treated animals): efficiently and repeatedly amplified
level and kinetics of γδ T lymphocyte response (BrHPP in rituximab-treated animals compared with BrHPP alone): at least as good as what is generally observed with BrHPP alone
